Here are results for 4 molecules from patent publication US5468744A (priority 1994, dated 1995).

The structures appear in SMILES notation. Like-named read-outs stand apart in the source and are kept apart here.

For series [1] the following is noted: in vivo; cited from earlier work.
The nature of series [2]: Tail-flick test, analgesic activity in male CD1 mice (oral, 15 min). The note with it: for ED50: Mus musculus, po, 0.25 h, read-out: ED50 (95% confidence interval), drug alone; for ED50 at 15 min (95% Cl's), Tramadol: tramadol component. Format: in vivo. The protocol:
For each of the ratios of individual drugs used in the drug combinations tested (Table I), stock solutions were prepared that corresponded to twice the dose of each drug having a concentration expressed in mgdrug(s) per 5 mL of distilled water. For example, in the case of the 1:20 tramadol:codeine ratio, 9.1 mg of tramadol hydrochloride (=8.0 mg of tramadol as the base) and 217.1 mg of codeine phosphate (=160.0 mg of codeine as the free base) were each dissolved in separate 5 mL vials of distilled water to form individual stock solutions. Equal volumes of each of the stock solutions were then combined to prepare the final desired drug combination per 10 mL of distilled water. […] Then 10 mL/kg of the stock solution was injected into the mouse. See, Table I. Each ratio was prepared separately in a similar manner and injected in a volume of 10 mL/kg per mouse.
The preparation of different ratios of a tramadol/oxycodone combination is effected by preparing a stock solution having a concentration expressed in mgdrugs per 10 mL of dissolved water. […] Each ratio was prepared separately in a similar manner and injected in a volume of 10 mL/kg per mouse.
Some mice were dosed orally with the compositions as made in Example 1 and as shown in Table 1 and other mice were dosed orally with the compositions as made in Example 2 and as shown in Table II. The dosing volume was 10 mL/kg.
Analgesic activity was assessed employing the tail-flick test as described by F. D'Amour et al., J. Pharmacol. Exp. Ther., 72, 74 (1941). The test involved subjecting the tail of a mouse to a focused heat stimulus and monitoring the response, i.e., "flicking" (removing) of the tail from the source of the stimulus. The reaction time (latency) of the response was first measured without the administration of any drug composition, and repeated fifteen minutes after the administration of compositions of the invention wherein the components of the compositions are in various ratios. Each mouse was only subjected to one pre- and post-administration test.
The analysis of possible superadditivity for the compositions at each fixed ratio was determined as disclosed by R. J. Tallarida et al., Life Sci., 45, 947 (1989). This procedure involved determination of the total amount in the mixture that is required to produce a specified level of effect, such as 50% (ED50mix), and the corresponding total amount that would be expected under simple additivity (ED50add). Where it was established that ED50mix <ED50add for a specific fixed-ratio,then that composition ratio is superadditive. Both the 1quantities ED50mix and ED50add were random variables; ED50mix was estimated from the dose-response curve for a specific fixed-ratio; ED50add was obtained by combining the ED50 estimates for the two drugs under additivity. ED50mix was then compared to ED50add via a t-test. […] The interaction between tramadol and codeine or […] were determined at precise dosage ratios of tramadol hydrochloride and codeine or oxycodone. Multiple (typically 4-6) coded doses of each selected combination were studied for analgesic effectiveness after 15 minutes using an experimental design which permitted the complete randomization of the separate dosage forms tested.
In the Figures, the diagonal line joining the ED50 values of the two drugs given separately represents the simple additivity of a composition effects at different component ratio. The dotted adjacent lines to the diagonal line define the 95% confidence interval. ED50's falling under the curve (between the line and the origin) indicate superadditivity, i.e., unexpected enhancement of effects. The diagonal dashed lines radiating from the origin represent the dose ratios of tramadol hydrochloride to codeine phosphate (FIG. 1) or oxycodone sulfate (FIG. 2) used in mice receiving the combined drug dosages. The bars through the ED50 points for tramadol and codeine or oxycodone compositions represent the 95% confidence intervals of the ED50.

Setting [3] is: drug alone, p.o., tail-flick, mice, 15 min.

For orientation: ED50 means the midpoint of the dose-response relation. In the case of `COc1ccc2c3c1O[C@H]1[C@@H](O)C=C[C@H]4[C@@H](C2)N(C)CC[C@@]341` [Codeine only], in series [1], the side effects entry was “respiratory depression, constipation, tolerance and abuse liability”. For the same molecule, in series [2] (setting [3]), the ED50 worked out at 71.3 mg/kg. Further, the Analgesia in series [2] (codeine 10 mg/kg p.o., 15 min) was 0/10; in series [2] (codeine 20 mg/kg p.o., 15 min), 1/10; in series [2] (codeine 40 mg/kg p.o., 15 min), 1/10; in series [2] (codeine 80 mg/kg p.o., 15 min) it was 5/10; in series [2] (codeine 160 mg/kg p.o., 15 min) it was 10/10.

Take `COc1ccc2c3c1O[C@H]1C(=O)CC[C@H]4[C@@H](C2)N(C)CC[C@]314` [hydrocodone]: in series [1], the side effects entry is “respiratory depression, constipation, tolerance and abuse liability”.

As for `COc1ccc2c3c1O[C@H]1C(=O)CC[C@@]4(O)[C@@H](C2)N(C)CC[C@]314` [oxycodone only], the side effects entry in series [1] was “respiratory depression, constipation, tolerance and abuse liability”. For the same molecule, in series [2], the ED50 is 4.2 mg/kg. In addition, the Analgesia is recorded as 0/10 in series [2] (oxycodone 0.5 mg/kg p.o., 15 min); 2/20 in series [2] (oxycodone 1 mg/kg p.o., 15 min); 3/10 in series [2] (oxycodone 2 mg/kg p.o., 15 min); 2/10 in series [2] (oxycodone 3 mg/kg p.o., 15 min); 5/10 in series [2] (oxycodone 6 mg/kg p.o., 15 min); 9/10 in series [2] (oxycodone 10 mg/kg p.o., 15 min). Also, the Analgesia in series [2] (oxycodone 20 mg/kg p.o., 15 min) is 10/10; in series [2] (oxycodone 30 mg/kg p.o., 15 min), 10/10.

In the case of `COc1cccc(C2(O)CCCCC2CN(C)C)c1` (stereo not drawn) [tramadol only, (1RS, 2RS) trans-2-[(dimethylamino)-methyl]-1-(3-methoxyphenyl)cyclohexanol], the 50% effective dose (ED50) at 15 min (95% Cl's), Tramadol in series [2] (Table I (tramadol:codeine), p.o., 15 min) was found to be 76.8 mg/kg; in series [2] (Table II (tramadol:oxycodone), p.o., 15 min), 76.8 mg/kg. In addition, the “ED50 (95% confidence interval), drug alone” value in series [2] (setting [3]) is 76.8 (59.2-99.7) mg/kg.
